One molecule from paper PMC5353720 (2017) can be followed below.

The test system of this assay is PSA-aptamer (DNA, aptamer) TTTTTAATTAAAGCTCGCCATCAAATAGCTTT
The experiment in a line: extended-gate field-effect transistor (AptaFET). The note with it: PBS, 1 mM MgCl2 (incubation); PBS (readout); 500 nM highest tested; shift 2.7 ± 0.3 mV against 22.3 mV on TFV-aptamer; immobilised aptamer.

As to `C[C@H](Cn1cnc2c(N)ncnc21)OCP(=O)(O)O`, the binding entry is “no”.
